The text below walks through data of article PMC12336229, “Peptide-mimetics derived from leucyl-tRNA synthetase are potential agents for the therapy of mt-tRNA related diseases” (Frontiers in Pharmacology, 2025).

Square brackets hold non-standard residues; d marks the D form. Peptide text beside a SMILES is read from it. Some results are limits rather than exact numbers.

Series [1] in a line: Plasma stability (UPLC-MS). The format is in vitro ADME, human. The settings on record: human EDTA plasma from four healthy volunteers, 37°C, gentle shaking, UPLC-MS (SIR); for remaining at 72 h, 0.2 mM: peak area vs time 0, read-out: Amount of detectable compound after incubation with human plasma. The protocol: To assess whether the β32_33 peptide, PMT, PMT-8a and PMT-8b peptide-mimetics are stable in blood, we set up a chromatographic assay able to evaluate compound concentration after incubation in human plasma.
Four different samples from healthy volunteers were used. Blood was drawn by venepuncture in vacutainer containing EDTA as an anticoagulant. Plasma was separated by centrifugation and immediately used for the experiments. Each compound was dissolved in 500 μL plasma at a final concentration of 0.2 mM and split into two aliquots, one of which was immediately analysed to assess the basal compound level (T0); the other was incubated at 37°C under gentle shaking, and the amount of each compound was measured at different time points (i.e., 1.5, 3, 6 and 72 h).
To perform chromatographic analyses, the samples were treated with 3 volumes of acetonitrile containing 1% formic acid and then extracted by using the Ostro™ pass-through sample preparation system to remove proteins and phospholipids. Samples were dried under vacuum, resuspended in 100 μL of 0.1% formic acid containing 5% acetonitrile, and then injected directly onto the chromatographic column.
Chromatographic analyses were performed on a Water Acquity H-Class UPLC system (Waters, Milford, MA, United States), including a quaternary solvent manager (QSM), a sample manager with a flow-through needle system (FTN), a photodiode array detector (PDA) and a single-quadruple mass detector with electrospray ionization source (ACQUITY QDa). Analyses were performed on a reverse phase C18 column (75 mm × 3.2 mm i. d., 2.5 μm particle size). The mobile phase was solvent A, 0.1% formic acid in water, and solvent B, 0.1% formic acid in acetonitrile. The flow rate was 0.5 mL/min, the column temperature was set at 25°C and the elution was performed by linearly increasing the concentration of solvent B up to 70% in 7 min. Mass spectrometric detection was performed in the positive electrospray ionization mode, using nitrogen as the nebulizer gas. Analyses were performed in the Total Ion Current (TIC) mode with a mass range of 100–1200 m/z. The capillary voltage was 0.8 kV, cone voltage 8 V, ion source temperature 120°C and probe temperature 600°C. Quantification was performed by Selected Ion Recording (SIR): at m/z = 917.88, corresponding to the [M+2H]^2+ ion obtained from either β32_33 peptide or PMT; at m/z = 961.42, corresponding to the [M + H] ^+ obtained from PMT-8a; and at m/z = 869.48, corresponding to the [M + H]^+ ion obtained from PMT-8b.

For series [2] the following is noted: healthy animals; reached immediately, stable up to 24 h after injection; ref Peng et al., 2018; cited from earlier work. The source says:
PMT radiolabelling with ^64Cu allowed us to follow the in vivo distribution of the peptide in the body districts of healthy animals over time.

Another series deals with mutant cybrids. Description: Confocal fluorescence microscopy, co-localization with mitochondria (Mitotracker Red). The format is cell-based, human. The settings on record: Cy5 constructs 0.25 µM in glucose medium, imaged after 24 h, Mitotracker Red; mean ± SEM of at least five images. The protocol:
Previously established osteosarcoma-derived (143B.TK-) cybrid cell lines from patients, which bear either the m.3243A>G mutation in mt-tRNA^Leu(UUR) or the m.8344A>G mutation in mt-tRNA^Lys and controls ([Perli et al., 2014]; [Perli et al., 2016]; [Perli et al., 2020]) were used.
Constructs made of compounds listed in Table 1, comprising D-peptides linked to the Cy5 fluorophore via maleimide cross-linker, were administered to sub-confluent cybrid cell cultures at 0.25 µM in glucose medium. About 24 h after treatment with each construct, cells were incubated with 200 nM Mitotracker Red FM (LifeTechnologies Italia, Monza, Italy) for 30 min at 37°C.
Subsequently, cells were visualized by confocal microscopy. Images of 800 × 800 px (at 88 nm/px) were acquired at the Olympus iX83 FluoView1200 laser scanning confocal microscope using a 60 × NA1,35 oil objective (Olympus Italia SRL Milano, Italy), zoom 3×, 559 nm, and 635 nm lasers and filter setting for Mitotracker Red and Cy5. The fluorescence images were analysed with the ImageJ software ([Rasband, 2018]) to determine the Pearson’s correlation coefficient.
For a subset of experiments, we evaluated the mt localization of constructs up to 72 h after treatment. PMT and PMT fragments were administered to sub-confluent cybrids at a concentration of 0.25 µM in the glucose medium. At 24-, 48- and 72-h after treatment, cells were incubated with Mitotracker Red and visualized by confocal microscopy. After each confocal imaging section, a fresh glucose medium was added to the cells, which were maintained under standard conditions (a humidified atmosphere of 95% air and 5% CO2 at 37°C).

As to `CC(C)C[C@@H](NC(=O)[C@@H](Cc1ccccc1)NC(=O)[C@@H](CO)NC(=O)[C@@H](CCCCN)NC(=O)[C@H](N)CCCCN)C(=O)N[C@H](CO)C(=O)N1CCC[C@@H]1C(=O)N[C@H](CCCNC(=N)N)C(N)=O` [PMT-8a] (H-[dK][dK][dS][dF][dL][dS][dP][dR]-NH2), the remaining at 72 h, 0.2 mM in series [1] (72 h) is over 90%. In the case of `CC[C@@H](C)[C@@H](NC(=O)[C@@H](CC(C)C)NC(=O)[C@@H](C)NC(=O)[C@H](NC(=O)[C@@H](CCCNC(=N)N)NC(=O)[C@H]1CCCN1C(=O)[C@@H](CO)NC(=O)[C@H](N)CC(C)C)[C@H](C)O)C(N)=O` [PMT-8b] (H-[dL][dS][dP][dR][dT][dA][dL][dI]-NH2), the remaining at 72 h, 0.2 mM in series [1] (72 h) is over 85%. `[64Cu]` [free ^64Cu]: the “Radioactivity concentration in different cortical regions” value in series [2] is listed as 0.4–0.6 %ID/mL.

As to `CC[C@H](C)[C@H](NC(=O)[C@H](CC(C)C)NC(=O)[C@H](C)NC(=O)[C@@H](NC(=O)[C@H](CCCNC(=N)N)NC(=O)[C@@H]1CCCN1C(=O)[C@H](CO)NC(=O)[C@H](CC(C)C)NC(=O)[C@H](Cc1ccccc1)NC(=O)[C@H](CO)NC(=O)[C@H](CCCCN)NC(=O)[C@@H](N)CCCCN)[C@@H](C)O)C(=O)N[C@@H](CC(N)=O)C(=O)N[C@@H](Cc1ccccc1)C(=O)N[C@@H](CC(C)C)C(=O)N[C@H](C(N)=O)C(C)C` [β32_33 peptide], the metabolised at 1.5 h, 0.2 mM in series [1] (1.5 h, peak area vs time 0, read-out: Decrease of amount of compound after incubation with human plasma) came out at 90%. Further, in series [1] (72 h, 0.2 mM, peak area vs time 0), the “Amount of detectable compound after incubation with human plasma” value was “almost undetectable”. For the same molecule, the “Pearson's correlation coefficient (PCC), mt localization” value with mutant cybrids turned out to be 0.78 ± 0.06.
